Laboratory results from patent publication US8642585B2, “Indanyloxydihydrobenzofuranylacetic acids” (Boehringer Ingelheim International GmbH, priority 2012, dated 2014).

Target: human GPR40 receptor (Homo sapiens, UniProt O14842)
Assay: Assay II: IP1 accumulation (IPOne HTRF) in 1321N1 cells stably expressing human GPR40
Format: cell-based
Conditions: 1321N1 cells expressing human GPR40, stimulation 1 h at 37° C., 5% CO2, LiCl 50 mM
Experimental: IP1 accumulation measurements using the IPOne assay system—1321N1 cells stably expressing human GPR40 receptor (Euroscreen, Belgium) are seeded 24 h before the assay in white 384-well plates in culture medium containing 10% FCS, 1% Na-Pyruvate and 400 μg/mL G418. IP1 is assayed according to the manufacturers description (Cisbio Bioassays, France). In brief, the assay is started by substitution of the culture medium by stimulation buffer (Hepes 10 mM, CaCl2 1 mM, MgCl2 0.5 mM, KCl 4.2 mM, NaCl 146 mM, glucose 5.5 mM and LiCl 50 mM, pH 7.4). Cells are stimulated for 1 h at 37° C., 5% CO2 by addition of the compounds that are diluted in stimulation buffer containing LiCl. Assays are stopped by adding HTRF-conjugates (IP1-d2 and Anti-IP1 cryptate Tb) and lysis buffer, provided by the manufacturer. After an incubation time of 1 h at room temperature plates are measured using an EnVision™, Perkin Elmer. The obtained fluorescence ratios at 665/615 nM are then used to calculate the pEC50 values using Assay Explorer 3.3 Software (Accelrys, Inc.) by interpolation using an IP1 reference curve and subsequent sigmoidal curve fitting allowing for a variable hill slope.

Sequence of human GPR40 receptor (O14842 whole entry): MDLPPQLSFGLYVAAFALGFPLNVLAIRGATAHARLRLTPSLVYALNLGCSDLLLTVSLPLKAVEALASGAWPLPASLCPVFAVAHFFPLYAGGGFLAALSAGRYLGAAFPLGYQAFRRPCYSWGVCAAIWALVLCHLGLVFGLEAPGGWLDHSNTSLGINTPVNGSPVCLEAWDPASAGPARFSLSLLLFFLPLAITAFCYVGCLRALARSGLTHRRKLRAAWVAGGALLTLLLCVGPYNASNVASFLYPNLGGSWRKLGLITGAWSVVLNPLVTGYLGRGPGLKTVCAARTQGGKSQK

Structure (SMILES) | EC50
Cc1cc(OC[C@@H]2CCS(=O)(=O)C2)cc(C)c1-c1ccc(F)c2c1CC[C@H]2Oc1ccc2c(c1)OC[C@H]2CC(=O)O (single isomer, unassigned) [Example 46] | 7 nM
Cc1cc(OC2CCC(C)(O)C2)cc(C)c1-c1ccc(F)c2c1CC[C@H]2Oc1ccc2c(c1)OC[C@H]2CC(=O)O (single isomer, unassigned) [Example 78] | 4 nM
Cc1cc(OC2CCC(C)(O)C2)cc(C)c1-c1ccc(F)c2c1CC[C@H]2Oc1ccc2c(c1)OC[C@H]2CC(=O)O (single isomer, unassigned) [Example 79] | 5 nM
Cc1cc(OC[C@@H](C)CS(C)(=O)=O)cc(C)c1-c1ccc(F)c2c1CC[C@H]2Oc1ccc2c(c1)OC[C@H]2CC(=O)O [Example 36, ((S)-6-{(R)-7-Fluoro-4-[4-((R)-3-methanesulfonyl-2-methyl-propoxy)-2,6-dimethyl-phenyl]-indan-1-yloxy}-2,3-dihydro-benzofuran-3-yl)-acetic acid] | 8 nM
Cc1cc(OC[C@H](C)CS(C)(=O)=O)cc(C)c1-c1ccc(F)c2c1CC[C@H]2Oc1ccc2c(c1)OC[C@H]2CC(=O)O [Example 37, ((S)-6-{(R)-7-Fluoro-4-[4-((S)-3-methanesulfonyl-2-methyl-propoxy)-2,6-dimethyl-phenyl]-indan-1-yloxy}-2,3-dihydro-benzofuran-3-yl)-acetic acid] | 6 nM
Cc1cc(OCCN2CCCS2(=O)=O)cc(C)c1-c1ccc(F)c2c1CC[C@H]2Oc1ccc2c(c1)OC[C@H]2CC(=O)O [Example 40] | 13 nM
Cc1cc(OC2CCS(=O)(=O)NC2)cc(C)c1-c1ccc(F)c2c1CC[C@H]2Oc1ccc2c(c1)OC[C@H]2CC(=O)O (stereo partly drawn) [Example 41, ((S)-6-{(R)-4-[4-(1,1-Dioxo-1-[1,2]thiazinan-4-yloxy)-2,6-dimethyl-phenyl]-7-fluoro-indan-1-yloxy}-2,3-dihydro-benzofuran-3-yl)-acetic acid] | 18 nM
Cc1cc(OC2CCS(=O)(=O)N(C)C2)cc(C)c1-c1ccc(F)c2c1CC[C@H]2Oc1ccc2c(c1)OC[C@H]2CC(=O)O (stereo partly drawn) [Example 42, ((S)-6-{(R)-4-[2,6-Dimethyl-4-(2-methyl-1,1-dioxo-1-[1,2]thiazinan-4-yloxy)-phenyl]-7-fluoro-indan-1-yloxy}-2,3-dihydro-benzofuran-3-yl)-acetic acid] | 11 nM
Cc1cc(OCCCCS(C)(=O)=O)cc(C)c1-c1ccc(F)c2c1CC[C@H]2Oc1ccc2c(c1)OC[C@H]2CC(=O)O [Example 43, ((S)-6-{(R)-7-Fluoro-4-[4-(4-methanesulfonyl-butoxy)-2,6-dimethyl-phenyl]-indan-1-yloxy}-2,3-dihydro-benzofuran-3-yl)-acetic acid] | 22 nM
Cc1cc(O[C@@H]2CCN(S(C)(=O)=O)C2)cc(C)c1-c1ccc(F)c2c1CC[C@H]2Oc1ccc2c(c1)OC[C@H]2CC(=O)O [Example 44, ((S)-6-{(R)-7-Fluoro-4-[4-((R)-1-methanesulfonyl-pyrrolidin-3-yloxy)-2,6-dimethyl-phenyl]-indan-1-yloxy}-2,3-dihydro-benzofuran-3-yl)-acetic acid] | 17 nM
Cc1cc(OCC(C)(C)S(C)(=O)=O)cc(C)c1-c1ccc(F)c2c1CC[C@H]2Oc1ccc2c(c1)OC[C@H]2CC(=O)O [Example 45, ((S)-6-{(R)-7-Fluoro-4-[4-(2-methanesulfonyl-2-methyl-propoxy)-2,6-dimethyl-phenyl]-indan-1-yloxy}-2,3-dihydro-benzofuran-3-yl)-acetic acid] | 9 nM
Cc1cc(OC2CCN(S(C)(=O)=O)CC2)cc(C)c1-c1ccc(F)c2c1CC[C@H]2Oc1ccc2c(c1)OC[C@H]2CC(=O)O [Example 48, ((S)-6-{(R)-7-Fluoro-4-[4-(1-methanesulfonyl-piperidin-4-yloxy)-2,6-dimethyl-phenyl]-indan-1-yloxy}-2,3-dihydro-benzofuran-3-yl)-acetic acid] | 14 nM
Cc1cc(O[C@@H]2CCCN(S(C)(=O)=O)C2)cc(C)c1-c1ccc(F)c2c1CC[C@H]2Oc1ccc2c(c1)OC[C@H]2CC(=O)O [Example 49, ((S)-6-{(R)-7-Fluoro-4-[4-((R)-1-methanesulfonyl-piperidin-3-yloxy)-2,6-dimethyl-phenyl]-indan-1-yloxy}-2,3-dihydro-benzofuran-3-yl)-acetic acid] | 10 nM
Cc1cc(O[C@H]2CCCN(S(C)(=O)=O)C2)cc(C)c1-c1ccc(F)c2c1CC[C@H]2Oc1ccc2c(c1)OC[C@H]2CC(=O)O [Example 50, ((S)-6-{(R)-7-Fluoro-4-[4-((S)-1-methanesulfonyl-piperidin-3-yloxy)-2,6-dimethyl-phenyl]-indan-1-yloxy}-2,3-dihydro-benzofuran-3-yl)-acetic acid] | 20 nM
Cc1cc(OCC2CCCS(=O)(=O)C2)cc(C)c1-c1ccc(F)c2c1CC[C@H]2Oc1ccc2c(c1)OC[C@H]2CC(=O)O (stereo partly drawn) [Example 51, ((S)-6-{(R)-4-[4-(1,1-Dioxo-hexahydro-1-thiopyran-3-ylmethoxy)-2,6-dimethyl-phenyl]-7-fluoro-indan-1-yloxy}-2,3-dihydro-benzofuran-3-yl)-acetic acid] | 7 nM
Cc1cc(C(=O)NCC(C)(C)O)cc(C)c1-c1ccc(F)c2c1CC[C@H]2Oc1ccc2c(c1)OC[C@H]2CC(=O)O [Example 54, ((S)-6-{(R)-7-Fluoro-4-[4-(2-hydroxy-2-methyl-propylcarbamoyl)-2,6-dimethyl-phenyl]-indan-1-yloxy}-2,3-dihydro-benzofuran-3-yl)-acetic acid] | 13 nM
Cc1cc(OC(C)(C)CO)cc(C)c1-c1ccc(F)c2c1CC[C@H]2Oc1ccc2c(c1)OC[C@H]2CC(=O)O [Example 55, ((S)-6-{(R)-7-Fluoro-4-[4-(2-hydroxy-1,1-dimethyl-ethoxy)-2,6-dimethyl-phenyl]-indan-1-yloxy}-2,3-dihydro-benzofuran-3-yl)-acetic acid] | 25 nM
Cc1cc(OC(C)(C)C(N)=O)cc(C)c1-c1ccc(F)c2c1CC[C@H]2Oc1ccc2c(c1)OC[C@H]2CC(=O)O [Example 56, ((S)-6-{(R)-4-[4-(1-Carbamoyl-1-methyl-ethoxy)-2,6-dimethyl-phenyl]-7-fluoro-indan-1-yloxy}-2,3-dihydro-benzofuran-3-yl)-acetic acid] | 43 nM
Cc1cc(OCC(C)(C)C#N)cc(C)c1-c1ccc(F)c2c1CC[C@H]2Oc1ccc2c(c1)OC[C@H]2CC(=O)O [Example 64, 2-((S)-6-((R)-4-(4-(2-Cyano-2-methylpropoxy)-2,6-dimethylphenyl)-7-fluoro-2,3-dihydro-1H-inden-1-yloxy)-2,3-dihydrobenzofuran-3-yl)acetic acid] | 8 nM
Cc1cc(OCC2(O)CCOCC2)cc(C)c1-c1ccc(F)c2c1CC[C@H]2Oc1ccc2c(c1)OC[C@H]2CC(=O)O [Example 66, 2-((S)-6-((R)-7-Fluoro-4-(4-((4-hydroxytetrahydro-2H-pyran-4-yl)methoxy)-2,6-dimethylphenyl)-2,3-dihydro-1H-inden-1-yloxy)-2,3-dihydrobenzofuran-3-yl)acetic acid] | 5 nM
Cc1cc(CCC(C)(C)O)cc(C)c1-c1ccc(F)c2c1CC[C@H]2Oc1ccc2c(c1)OC[C@H]2CC(=O)O [Example 67, 2-((S)-6-((R)-7-Fluoro-4-(4-(3-hydroxy-3-methylbutyl)-2,6-dimethylphenyl)-2,3-dihydro-1H-inden-1-yloxy)-2,3-dihydrobenzofuran-3-yl)acetic acid] | 7 nM
Cc1cc(OCC2(O)CCSCC2)cc(C)c1-c1ccc(F)c2c1CC[C@H]2Oc1ccc2c(c1)OC[C@H]2CC(=O)O [Example 68, 2-((S)-6-((R)-7-Fluoro-4-(4-((4-hydroxytetrahydro-2H-thiopyran-4-yl)methoxy)-2,6-dimethylphenyl)-2,3-dihydro-1H-inden-1-yloxy)-2,3-dihydrobenzofuran-3-yl)acetic acid] | 10 nM
Cc1cc(OCC2(O)CCS(=O)(=O)CC2)cc(C)c1-c1ccc(F)c2c1CC[C@H]2Oc1ccc2c(c1)OC[C@H]2CC(=O)O [Example 69, 2-((S)-6-((R)-7-Fluoro-4-(4-((1,1-dioxo-4-hydroxytetrahydro-2H-thiopyran-4-yl)methoxy)-2,6-dimethylphenyl)-2,3-dihydro-1H-inden-1-yloxy)-2,3-dihydrobenzofuran-3-yl)acetic acid] | 8 nM
Cc1cc(CCCS(C)(=O)=O)cc(C)c1-c1ccc(F)c2c1CC[C@H]2Oc1ccc2c(c1)OC[C@H]2CC(=O)O [Example 70, 2-((S)-6-((R)-4-(2,6-Dimethyl-4-(3-(methylsulfonyl)propyl)phenyl)-7-fluoro-2,3-dihydro-1H-inden-1-yloxy)-2,3-dihydrobenzofuran-3-yl)acetic acid] | 60 nM
Cc1cc(OCCNS(C)(=O)=O)cc(C)c1-c1ccc(F)c2c1CC[C@H]2Oc1ccc2c(c1)OC[C@H]2CC(=O)O [Example 71, 2-((S)-6-((R)-4-(2,6-Dimethyl-4-(2-(methylsulfonamido)ethoxy)phenyl)-7-fluoro-2,3-dihydro-1H-inden-1-yloxy)-2,3-dihydrobenzofuran-3-yl)acetic acid] | 28 nM
CC(=O)NCCc1cc(C)c(-c2ccc(F)c3c2CC[C@H]3Oc2ccc3c(c2)OC[C@H]3CC(=O)O)c(C)c1 [Example 72, 2-((S)-6-((R)-4-(4-(2-Acetamidoethyl)-2,6-dimethylphenyl)-7-fluoro-2,3-dihydro-1H-inden-1-yloxy)-2,3-dihydrobenzofuran-3-yl)acetic acid] | 23 nM
